Source: patent EP4722219A1 (Gan & Lee Pharmaceuticals Co., Ltd., priority 2023, dated 2024)

Key:
Format in all cases: cell-based
T-47D cells = assay: Inhibition of cell proliferation in T-47D cells (CCK-8); conditions: Homo sapiens, T47D, 144 h, 6 days treatment, CCK-8 cell viability
Outline: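 Viability by CCK-8 after a 6-day, 37 °C/5% CO2 exposure of T-47D cells (3,000/well, RPMI-1640 + 10% FBS) to graded PROTAC concentrations. Inhibition rates gave the IC50.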

ERα [1] = biological target: T1, ERα (Homo sapiens, UniProt P03372); assay: ERα degradation in MCF-7 cells (Western blot); set-up: host or cells: MCF-7; conditions: 4 hours
T1 sequence (P03372 1-595): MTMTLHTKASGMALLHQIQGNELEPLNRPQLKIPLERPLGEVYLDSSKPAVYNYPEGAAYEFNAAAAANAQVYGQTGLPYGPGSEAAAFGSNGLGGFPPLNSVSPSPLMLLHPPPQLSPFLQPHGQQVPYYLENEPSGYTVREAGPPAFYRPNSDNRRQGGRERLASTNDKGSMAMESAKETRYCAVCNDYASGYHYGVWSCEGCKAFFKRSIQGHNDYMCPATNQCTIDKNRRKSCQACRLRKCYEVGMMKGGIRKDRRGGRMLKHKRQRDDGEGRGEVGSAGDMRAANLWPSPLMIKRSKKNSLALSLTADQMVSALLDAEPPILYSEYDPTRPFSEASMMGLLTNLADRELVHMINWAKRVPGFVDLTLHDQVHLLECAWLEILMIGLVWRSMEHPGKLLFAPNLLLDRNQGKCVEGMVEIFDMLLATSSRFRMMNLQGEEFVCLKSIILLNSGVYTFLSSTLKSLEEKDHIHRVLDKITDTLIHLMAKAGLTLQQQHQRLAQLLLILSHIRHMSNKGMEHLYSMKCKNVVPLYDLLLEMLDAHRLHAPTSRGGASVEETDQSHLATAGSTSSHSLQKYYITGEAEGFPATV
Method: Test Example 4 Effect of PROTAC Compounds Disclosed in the Present Invention on ERα Degradation in MCF-7 Cells
MCF-7 (ATCC) cells were cultured in DMEM medium (11995-065, Gibco) containing 10% FBS (10099141C, Gibco) at 37°C and 5% CO2 until they entered the logarithmic growth phase. MCF-7 cells were plated at a density of 3×10^5 cells/well in a 6-well plate and incubated at 37°C, 5% CO2 for 24 hours. After cell attachment, 1µL of compound in dimethyl sulfoxide (final concentration 0.15-1000nM) was added and incubated for another 4 hours at 37°C, 5% CO2 incubator. After 4 hours, the culture medium was discarded, and each well was washed once with 1 mL of pre-chilled 1× DPBS. The cells were then lysed with 50 µL of RIPA lysis buffer (P0013B, Beyotime) and 1× protease inhibitor cocktail (P1005, Beyotime). After incubation on ice for 20 minutes, the cells were centrifuged at 14,000 g at 4°C for 30 minutes. The supernatant was carefully collected and analyzed for ERα protein levels by immunoblotting.
(§1) Western blotting: The total protein concentration in the collected cell lysate supernatant was determined using the BCA protein concentration assay kit (enhanced) (P0009, Beyotime). Based on the total protein concentration determined by BCA, the protein concentration was adjusted to 1 µg/µL using RIPA lysis buffer and 5× SDS-PAGE protein loading buffer (MB01015, GenScript). The protein was denatured in a 95°C water bath for 5 minutes. After denaturation, the condensed water on the tube wall was collected by centrifugation and used as the loading sample. 20µL of the loading sample (20 µg of total protein) was added to the sample well of a 12% precast gel (M00669, GenScript). Electrophoresis was performed at 100 V for 20 minutes, followed by switching to 150 V for 40 minutes. After electrophoresis, the proteins from the SDS-PAGE gel were transferred to a PVDF membrane at a constant voltage of 100 V for 60 minutes. After transfer, the PVDF membrane corresponding to the ERα protein and internal reference protein was cut and incubated in 1× QµickBlock blocking buffer (P0252, Beyotime) for 30 minutes at room temperature on a shaker. After blocking, the ERα primary antibody (1:1000, 8644S, CST) was added and incubated overnight at 4°C on a shaker. The PVDF membrane was washed three times with 1× TBST buffer for 5 minutes each. Rabbit IgG (H+L) secondary antibody (1:7500, SA5-35571, Invitrogen) was added and incubated for 1 hour at room temperature on a shaker. The membrane was then washed again three times with 1× TBST buffer for 5 minutes each. Finally, the membrane was imaged using a dual-color infrared laser imaging system (Odyssey DLx, LICOR). Protein maps were analyzed for grayscale value using Image Studio Lite software. The grayscale correction value for each sample was calculated using the formula: grayscale correction value = grayscale value of the target protein / grayscale value of the corresponding internal reference. Then the grayscale correction values of the compound group and the control group were compared to calculate the degradation rate of the compound. Table 4 Degradation rate of ERα by PROTAC compounds of the present invention and positive control in MCF-7 cells (%)

ERα [2] = biological target: T1, ERα; assay: ERα degradation in T-47D cells (Western blot); conditions: 4 hours
Method: as §1
Test Example 5 Degradation of ERα by the PROTAC compounds disclosed in the present invention in T-47D cells
T-47D (ATCC) cells were cultured in PRMI-1640 medium (30-2001, ATCC) containing 10% FBS (10099141C, Gibco) at 37°C and 5% CO2 until they entered the logarithmic growth phase. T-47D cells were seeded at a density of 3×10^5 cells/well in a 6-well plate and incubated at 37°C, 5% CO2 for 24 hours. After cell attachment, 1 µL of compound dimethyl sulfoxide solution (final concentration 0.15-1000 nM) was added and incubated for another 4 hours at 37°C, 5% CO2 incubator. After 4 hours, the culture medium was discarded, and each well was washed once with 1 mL of pre-chilled 1× DPBS. The cells were then lysed with 50 µL of RIPA lysis buffer (P0013B, Beyotime) and 1× protease inhibitor cocktail (P1005, Beyotime). After incubation on ice for 20 minutes, the cells were centrifuged at 14,000 g at 4°C for 30 minutes. The supernatant was carefully collected and analyzed for ERα protein levels by immunoblotting. Table 5 Degradation rate of ERα by PROTAC compounds of the present invention and positive control sample in T-47D cells (%)

MCF-7 cells = assay: Inhibition of cell proliferation in MCF-7 cells (CCK-8); conditions: MCF-7 cell proliferation, 6 days treatment
Outline: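 IC50 from CCK-8 viability-based inhibition after 6-day treatment of MCF-7 cells (800 cells/well, 10% FBS DMEM, 37 °C, 5% CO2) with serially varied compound concentrations.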

| Structure (SMILES) | IC50 (T-47D cells) | Degradation rate of ERα in MCF-7 cells (%) (ERα [1]; 1nM) | Degradation rate of ERα in MCF-7 cells (%) (ERα [1]; 10nM) | Degradation rate of ERα in T-47D cells (%) (ERα [2]; 1nM) | Degradation rate of ERα in T-47D cells (%) (ERα [2]; 10nM) | IC50 (MCF-7 cells; Homo sapiens, MCF7, 144 h) | IC50 (MCF-7 cells) |
| --- | --- | --- | --- | --- | --- | --- | --- |
| O=C1CCC(N2Cc3c(ccc4c3OCC43CCC4(CCN(CC5CCN(c6ccc([C@@H]7c8ccc(O)cc8CC[C@@H]7c7ccccc7)cc6)CC5)CC4)CC3)C2=O)C(=O)N1 (stereo partly drawn) [ER-P-1, 3-(1"-((1-(4-((1R,2S)-6-hydroxy-2-phenyl-1,2,3,4-tetrahydronaphthalen-1-yl)phenyl)piperidin-4-yl)methyl)-6-oxo-6,8-dihydro-2H,7H-dipyrazole[furo[2,3-e]isoindole-3,1'-cyclohexane-4',4'-piperidin]-7-yl)piperidine-2,6-dione] | 3.74 nM | 19% | 44% | 52% | 81% | < 0.256 nM | – |
| O=C1CCC(Nc2ccc3c(c2)OC[C@@H]2CN(C4CCC5(CC4)CN(c4ccc([C@@H]6c7ccc(O)cc7CC[C@@H]6c6ccccc6)cc4)C5)CCN32)C(=O)N1 (stereo partly drawn) [ER-P-36, 3-(((S)-3-(2-(4-((1R,2S)-6-hydroxy-2-phenyl-1,2,3,4-tetrahydronaphthalen-1-yl)phenyl)-2-azaspiro[3.5]nonan-7-yl)-1,2,3,4,4a,5-hexahydrobenzo[b]pyrazino[1,2-d][1,4]oxazin-8-yl)amino)piperidine-2,6-dione] | 25.1 nM | 7% | -11% | 0% | 1% | 2280 nM | – |
| O=C1CCC(N2Cc3c(ccc4c3OCC43CCC4(CCN(C5CCN(c6ccc([C@@H]7c8ccc(O)cc8CC[C@@H]7c7ccccc7)cc6)CC5)CC4)CC3)C2=O)C(=O)N1 (stereo partly drawn) [ER-P-58] | 2.19 nM | 42% | 69% | 35% | 71% | 12.8 nM | – |
| CN(c1ccc2c(c1)OCC21CCN(C[C@H]2CC[C@@H](OC3CCN(c4ccc([C@@H]5c6ccc(O)cc6CC[C@@H]5c5ccccc5)cc4)CC3)CC2)CC1)C1CCC(=O)NC1=O (stereo partly drawn) [ER-P-32, 3-((1'-(((1S,4s)-4-((1-(4-((1R,2S)-6-hydroxy-2-phenyl-1,2,3,4-tetrahydronaphthalen-1-yl)phenyl)piperidin-4-yl)oxy)cyclohexyl)methyl)-2H-spiro[benzofuran-3,4'-piperidin]-6-yl)(methyl)amino)piperidine-2,6-dione] | 19.5 nM | 12% | 13% | -2% | 15% | 705 nM | – |
| O=C1CCC(Nc2ccc3c(c2)OC2(CC3)CCN(C[C@H]3CC[C@@H](OC4CCN(c5ccc([C@@H]6c7ccc(O)cc7CC[C@@H]6c6ccccc6)cc5)CC4)CC3)CC2)C(=O)N1 (stereo partly drawn) [ER-P-43, 3-((1'-(((1S,4s)-4-((1-(4-((1R,2S)-6-hydroxy-2-phenyl-1,2,3,4-tetrahydronaphthalen-1-yl)phenyl)piperidin-4-yl)oxy)cyclohexyl)methyl)spiro[chromane-2,4'-piperidin]-7-yl)amino)piperidine-2,6-dione] | 95.1 nM | -13% | -19% | 10% | -1% | 1070 nM | – |
| O=C1CC[C@H](N2Cc3cc(N4CCN(CC5CCN(c6ccc([C@@H]7c8ccc(O)cc8CC[C@@H]7c7ccccc7)cc6)CC5)CC4)ccc3C2=O)C(=O)N1 [ARV-471, reference compound] | 0.0017 nM | 38% | 76% | 61% | 85% | 0.0017 nM | – |
| O=C1CCC(Nc2ccc3c(c2)COC[C@H]2CN(CC4CCC(OC5CCN(c6ccc([C@@H]7c8ccc(O)cc8CC[C@@H]7c7ccccc7)cc6)CC5)CC4)CCN32)C(=O)N1 (single isomer, unassigned) [ER-P-50] | 45.6 nM | 1% | 9% | 4% | 18% | – | 3270 nM |
| O=C1CCC(n2c(=O)n3c4c(cccc42)N(C[C@H]2CC[C@@H](OC4CCN(c5ccc([C@@H]6c7ccc(O)cc7CC[C@@H]6c6ccccc6)cc5)CC4)CC2)CC3)C(=O)N1 (stereo partly drawn) [ER-P-56, 3-(6-(((1S,4s)-4-((1-(4-((1R,2S)-6-hydroxy-2-phenyl-1,2,3,4-tetrahydronaphthalen-1-yl)phenyl)piperidin-4-yl)oxy)cyclohexyl)methyl)-2-oxo-5,6-dihydro-4H-imidazo[1,5,4-de]quinoxalin-1(2H)-yl)piperidine-2,6-dione] | 42.2 nM | -4% | 16% | 22% | 24% | 2460 nM | – |
| O=C1CCC(N2Cc3c(ccc4c3OCC43CCC4(CCN(C5CCC6(CC5)CN(c5ccc([C@@H]7c8ccc(O)cc8CC[C@@H]7c7ccccc7)cc5)C6)CC4)CC3)C2=O)C(=O)N1 (stereo partly drawn) [ER-P-2] | 2.02 nM | 7% | 48% | 26% | 54% | 62.6 nM | – |
